Three molecules from patent US11918626B2, “Vasointestinal peptide receptor inhibitors for enhancement of gastrointestinal health” (New York University, priority 2019, dated 2024) can be followed below.

In experiment [1] the target is T1, hM4Di (Homo sapiens, UniProt P08173, A203G/Y113C).
T1 construct: host or cells: VIP-producing enteric neurons of Vip-IRES-Cre x hM4Di fl-stop-fl transgenic mice (in vivo)
T1 sequence (P08173 1-479 Y113C/A203G): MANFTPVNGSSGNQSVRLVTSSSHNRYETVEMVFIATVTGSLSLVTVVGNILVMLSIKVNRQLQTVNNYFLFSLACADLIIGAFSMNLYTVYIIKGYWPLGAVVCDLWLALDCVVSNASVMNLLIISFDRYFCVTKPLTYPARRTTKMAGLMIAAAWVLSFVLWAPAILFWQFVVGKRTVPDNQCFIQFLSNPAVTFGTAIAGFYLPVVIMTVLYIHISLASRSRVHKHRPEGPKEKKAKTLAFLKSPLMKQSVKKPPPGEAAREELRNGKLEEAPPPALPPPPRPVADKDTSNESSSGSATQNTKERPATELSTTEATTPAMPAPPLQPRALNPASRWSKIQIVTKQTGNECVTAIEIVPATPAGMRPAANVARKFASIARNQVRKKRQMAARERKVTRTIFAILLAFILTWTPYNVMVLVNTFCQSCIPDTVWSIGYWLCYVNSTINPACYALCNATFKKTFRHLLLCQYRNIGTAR
The experiment is described as follows: VIPen inhibition with inhibitory DREADD (hM4Di), 24 h. The class given is in vivo, mice. Conditions: versus vehicle. As for the experimental part:
(§1) To perform chemogenetic activation or inhibition of VIPen, we bred VIP^IRES-Cre homozygous mice to hM3Dq^fl-stop-fl mice (DREADD for activation) or hM4Di^fl-stop-fl bp-mice (DREADD for inhibition), generating VIP^IRES-Cre hM3Dq^fl-stop-fl (VIPen activation) and VIP^IRES-Cre hM3Dq^fl-stop-flhM4Di^fl-stop-fl mice (VIPen inhibition). To perform 24 h activation of the DREADDs, mice were treated with Clozapine-N-Oxide (CNO, 1 mg/Kg intraperitoneally, TOCRIS) each 12 h. […] To perform activation of the DREADDs during Citrobacter rodentium infection, mice were treated daily with CNO (1 mg/Kg, intraperitoneally) from day 1 to day 4 after infection. […]
(§2) Live/dead fixable blue (ThermoFisher) or DAPI (ThermoFisher) were used to exclude dead cells. […] Flow cytometric analysis was performed on an LSR II (BD Biosciences) or an Aria II (BD Biosciences) and analyzed using FlowJo software version 10 (Tree Star).
(§3) TRNA isolation of ileal epithelial cells was performed using TRIzol following manufacturer's instructions (Invitrogen) followed by DNase I (Qiagen) treatment and cleanup with RNeasy MinElute kit (Qiagen) following manufacturer protocols. cDNA was generated using SuperScript™ IV First-Strand Synthesis System (ThermoFisher). […] Quantitative PCR was performed using the Hot Start-IT SYBRGreen (Affymetrix) on the Roche real-time PCR system (Roche 480). […]

Experiment [2] relates to ILC3. The experiment is described as follows: Pilot experiments with CNO in C57BL/6 mice. The class given is in vivo. The conditions noted are these: 1 mg/Kg intraperitoneally each 12 h, C57BL/6 mice without DREADD, data not shown.
Experiment [3] concerns C. rodentium. In words: C. rodentium infection of Vip-IRES-Cre hM4Di mice (VIPen inhibition). The class given is in vivo, Citrobacter rodentium. The conditions noted are these: 1 mg/Kg daily 1-4 d.p.i., 4×10^10 CFU, 9 d.p.i., mice positive/total. As for the experimental part:
(§4) To perform chemogenetic activation or inhibition of VIPen, we bred VIP^IRES-Cre homozygous mice to hM3Dq^fl-stop-fl mice (DREADD for activation) or hM4Di^fl-stop-fl bp-mice (DREADD for inhibition), generating VIP^IRES-Cre hM3Dq^fl-stop-fl (VIPen activation) and VIP^IRES-Cre hM3Dq^fl-stop-flhM4Di^fl-stop-fl mice (VIPen inhibition). To perform 24 h activation of the DREADDs, mice were treated with Clozapine-N-Oxide (CNO, 1 mg/Kg intraperitoneally, TOCRIS) each 12 h. […] To perform activation of the DREADDs during Citrobacter rodentium infection, mice were treated daily with CNO (1 mg/Kg, intraperitoneally) from day 1 to day 4 after infection.
C. rodentium strain DBS100 (ATCC51459; American Type Culture Collection) was grown at 37° C. in LB broth to OD600 reading between 0.5 and 0.7. VIP^IRES-CrehM3Dq^fl-stop-fl (VIPen activation) and C57BL/6 mice were inoculated with 200 μl of a bacterial suspension (2×10^9 CFU) by oral gavage. VIP^IRES-Cre hM3Dq^fl-stop-flhM4Di^fl-stop-fl mice (VIPen inhibition) were inoculated with 200 μl of a bacterial suspension (4×10^10 CFU) by oral gavage. For DREADD experiments, CNO treatment started at 1 day post-infection (d.p.i.) until 4 d.p.i. Mice were followed the next 12 days post-infection (d.p.i.) to measure survival rate. At 9 d.p.i. fecal pellets were collected and the mice dissected to harvest spleen and liver. […]

Experiment [4] relates to C. rodentium. The experiment is described as follows: C. rodentium infection of Vip-IRES-Cre hM3Dq mice (VIPen activation). The class given is in vivo, Citrobacter rodentium. Conditions: for bacterial dissemination (translocation) induced by VIPen activation / mortality induced by VIPen activation: 250 pg/mouse/day, C. rodentium-infected hM3Dq mice with VIPen activation. As for the experimental part: as §4
C. rodentium strain DBS100 (ATCC51459; American Type Culture Collection) was grown at 37° C. in LB broth to OD600 reading between 0.5 and 0.7. VIP^IRES-CrehM3Dq^fl-stop-fl (VIPen activation) and C57BL/6 mice were inoculated with 200 μl of a bacterial suspension (2×10^9 CFU) by oral gavage. VIP^IRES-Cre hM3Dq^fl-stop-flhM4Di^fl-stop-fl mice (VIPen inhibition) were inoculated with 200 μl of a bacterial suspension (4×10^10 CFU) by oral gavage. For DREADD experiments, CNO treatment started at 1 day post-infection (d.p.i.) until 4 d.p.i. Mice were followed the next 12 days post-infection (d.p.i.) to measure survival rate. At 9 d.p.i. fecal pellets were collected and the mice dissected to harvest spleen and liver. Samples were weighted and minced on sterile deionized water with Triton 0.1% and filtered on a 70 μm cell strainer. The filtered samples were used to measure C. rodentium burden with serial dilutions (triplicates) on MacConkey agar plates.

Experiment [5] has as its target T2, hM3Dq (Homo sapiens, UniProt P20309, A239G/Y149C).
T2 construct: host or cells: VIP-producing enteric neurons of Vip-IRES-Cre x hM3Dq fl-stop-fl transgenic mice (in vivo)
In words: VIPen activation with activating DREADD (hM3Dq), 24 h. Conditions: following VIPen activation, versus vehicle. The experiment is classed as in vivo, mice. As for the experimental part: as §1, §2, §3

Experiment [6] addresses T3, VIPR2 (Mus musculus, UniProt P41588).
T3 construct: endogenous in cells; host or cells: primary CCR6+ ILC3 sorted from small-intestine lamina propria of C57BL/6 mice
T3 sequence (P41588 23-437): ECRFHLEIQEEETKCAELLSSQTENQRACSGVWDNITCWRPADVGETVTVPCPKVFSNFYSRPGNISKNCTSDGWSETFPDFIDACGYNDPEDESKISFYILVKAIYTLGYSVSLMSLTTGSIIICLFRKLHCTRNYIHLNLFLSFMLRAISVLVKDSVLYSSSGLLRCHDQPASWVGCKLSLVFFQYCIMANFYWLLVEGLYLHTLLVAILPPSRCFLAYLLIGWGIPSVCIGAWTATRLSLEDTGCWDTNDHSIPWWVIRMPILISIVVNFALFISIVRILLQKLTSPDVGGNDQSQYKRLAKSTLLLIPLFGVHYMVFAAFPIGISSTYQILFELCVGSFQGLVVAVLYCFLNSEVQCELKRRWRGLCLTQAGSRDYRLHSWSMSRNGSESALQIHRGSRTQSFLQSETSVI
The experiment is described as follows: ILC3 in vitro cell culture with VIPR2 ligands, IL-22 and Sca-1 by flow cytometry. The conditions noted are these: IL-23 100 pg/mL, 12 h, different concentrations of ligand. The class given is cell-based, mice. As for the experimental part:
CCR6^+ and CCR6^neg ILC3 (DAPI^negCD3^negCD11c^negCD14^negCD19^negTCRβ^negTCRγ^negNK1.19KLRG1^negCD127^+CD90.2^+) were isolated from small intestine LPLs of C57BL/6 mice using the ARIA II FACS Sorter (BD Biosciences). ILC3 were cultured at 37° C. in flat bottom 96 well plates (10^4 cells/well) in RPMI supplemented with 10% heat-inactivated FBS (Hyclone), 50 U penicillin-streptomycin (Hyclone), 2 mM glutamine (Hyclone), 10 mM HEPES (Hyclone), 1 mM sodium pyruvate (Hyclone) and 50 μM β-mercaptoethanol (Gibco). ILC3 were stimulated with IL-23 (100 pg/mL, R&D systems) and/or VIPR2 ligands (BAY-559837: 1-100 nM, and VIP: 1 nM, […]), washed, incubated in complete media in the presence of Golgi Plug (BD Bioscience) for 4 h (37° C.), and stained for membrane extracellular markers in Staining Buffer (PBS FBS2% EDTA 5 mM) and for intracellular markers using Cytofix/Cytoperm buffer set following manufacturer's protocol (BD Biosciences). Acquisition of cytometric parameters was performed on an LSRII (BD Biosciences). All data were analyzed using FlowJo Software Version 10 (Tree Star).
as §2
A general note: In flow cytometry, cells or beads pass a laser one at a time.

The mark [7] stands for this setting: 1 mg/Kg daily 1-4 d.p.i., 2×10^9 CFU, 9 d.p.i., mice positive/total.
Where [8] appears, read: listed as recombinant murine IL-22.

T2 sequence (P20309 whole entry Y149C/A239G): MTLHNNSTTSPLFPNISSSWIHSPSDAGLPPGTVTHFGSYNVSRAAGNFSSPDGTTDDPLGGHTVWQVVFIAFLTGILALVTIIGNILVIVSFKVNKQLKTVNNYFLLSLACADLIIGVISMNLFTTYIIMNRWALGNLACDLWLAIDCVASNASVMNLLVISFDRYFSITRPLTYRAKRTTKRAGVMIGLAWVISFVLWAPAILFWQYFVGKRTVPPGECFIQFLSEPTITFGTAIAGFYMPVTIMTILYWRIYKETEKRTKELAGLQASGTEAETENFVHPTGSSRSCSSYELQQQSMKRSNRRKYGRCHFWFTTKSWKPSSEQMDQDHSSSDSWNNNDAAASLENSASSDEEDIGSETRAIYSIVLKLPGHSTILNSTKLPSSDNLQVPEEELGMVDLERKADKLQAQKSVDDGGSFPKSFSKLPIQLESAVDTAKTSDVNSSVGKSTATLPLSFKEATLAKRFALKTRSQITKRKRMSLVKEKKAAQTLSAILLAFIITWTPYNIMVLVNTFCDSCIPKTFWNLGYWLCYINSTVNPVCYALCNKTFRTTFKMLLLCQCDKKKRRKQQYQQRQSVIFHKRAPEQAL

Regarding `C[N+]1([O-])CCN(C2=Nc3cc(Cl)ccc3Nc3ccccc32)CC1` [CNO, Clozapine-N-oxide], in experiment [1] (after VIPen inhibition, 24 h), the “RegIIIγ mRNA expression in the IECs” value is on record as “increased”. For the same molecule, the “frequency of IL-22-producing CCR6+ ILC3” value in experiment [1] (ileum, 24 h following VIPen inhibition) is “higher frequency”. Moreover, the ILC3 function entry in experiment [2] is given as “does not affect”. Besides, in experiment [3], the “Positive for C. rodentium: liver” value is 1/7 and the “Positive for C. rodentium: spleen” value is reported as 1/7. Besides, in experiment [4] (setting [7]), the “Positive for C. rodentium: liver” value was 9/9 and the “Positive for C. rodentium: spleen” value was 9/9. In addition, in experiment [5], the “IL-22+ cells among the CCR6+ ILC3” value was “fewer” and the “RegIIIγ mRNA in IECs” value is on record as “lower”.

With vasoactive intestinal peptide [VIP], the “IL-23-induced Sca-1 expression on CCR6+ ILC3” value in experiment [6] is “does not modulate”.

B1: rmIL-22: recombinant murine IL-22 (protein, UniProt Q9JJY9 34-179, looked up)
Interleukin-22: LPVNTRCKLEVSNFQQPYIVNRTFMLAKEASLADNNTDVRLIGEKLFRGVSAKDQCYLMKQVLNFTLEDVLLPQSDRFQPYMQEVVPFLTKLSNQLSSCHISGDDQNIQKNVRRLKETVKKLGESGEIKAIGELDLLFMSLRNACV
As for B1, in experiment [4], the “bacterial dissemination (translocation) induced by VIPen activation” value was “protects against increase” and the “mortality induced by VIPen activation” value is on record as “protects against increase”. Further, in experiment [4] (setting [8]), the “bacterial dissemination (translocation) induced by VIPen activation” value is listed as “reversed the effect” and the “mortality induced by VIPen activation” value is listed as “reversed the effect”.
